# Results as given in US11497212B2, “Substituted thiophenyl uracils, salts thereof and the use thereof as herbicidal agents” (Syngenta Crop Protection AG, priority 2017, dated 2022).
# Tests used:
# Type in all cases: in vivo
# Abutilon theophrasti [1] = experiment: Herbicidal action post-emergence (greenhouse pot trial); conditions: application rate 80 g/ha, scored visually after about 3 weeks vs untreated controls
# Procedure, shortened: (§1)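 Post-emergence spray at one-leaf stage (2–3 wk after sowing, sandy loam, greenhouse); WP/EC in water + 0.5% additive; 600 L/ha; rate 80 g/ha or less. Visual % efficacy at ~3 wk vs untreated (100 = dead).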
# Alopecurus myosuroides [2] = experiment: as above; conditions: application rate 80 g/ha, scored visually after about 3 weeks vs untreated controls
# Procedure, shortened: as §1
# Amaranthus retroflexus [3] = experiment: as above; conditions: application rate 80 g/ha, scored visually after about 3 weeks vs untreated controls
# Procedure, shortened: as §1
# Digitaria sanguinalis [4] = experiment: as above; conditions: application rate 80 g/ha
# Procedure, shortened: as §1
# Echinochloa crus-galli [5] = experiment: as above; conditions: application rate 80 g/ha, scored visually after about 3 weeks vs untreated controls
# Procedure, shortened: as §1
# Lolium rigidum [6] = experiment: as above; conditions: application rate 80 g/ha, scored visually after about 3 weeks vs untreated controls
# Procedure, shortened: as §1
# Matricaria inodora [7] = experiment: as above; conditions: application rate 80 g/ha, scored visually after about 3 weeks vs untreated controls
# Procedure, shortened: as §1
# Pharbitis purpurea [8] = experiment: as above; conditions: application rate 80 g/ha
# Procedure, shortened: as §1
# Polygonum convolvulus = experiment: as above; conditions: application rate 80 g/ha, scored visually after about 3 weeks vs untreated controls
# Procedure, shortened: as §1
# Setaria viridis [9] = experiment: as above; conditions: application rate 80 g/ha, scored visually after about 3 weeks vs untreated controls
# Procedure, shortened: as §1
# Stellaria media [10] = experiment: as above; conditions: application rate 80 g/ha, scored visually after about 3 weeks vs untreated controls
# Procedure, shortened: as §1
# Veronica persica [11] = experiment: as above; conditions: application rate 80 g/ha
# Procedure, shortened: as §1
# Viola tricolor [12] = experiment: as above; conditions: application rate 80 g/ha
# Procedure, shortened: as §1
# Triticum aestivum = experiment: Crop compatibility post-emergence (greenhouse pot trial); conditions: application rate 5 g/ha
# Procedure, shortened: (§2)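 Visual % damage vs untreated controls, ~3 wk post-spray (100% = plants died, 0% = as control). Plants in sandy loam, greenhouse, sprayed at one-leaf stage (2–3 wk after sowing); WP/EC in water + 0.5% additive, 600 L/ha.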
# Abutilon theophrasti [13] = experiment: Herbicidal action pre-emergence (greenhouse pot trial); conditions: application rate 320 g/ha, scored after about 3 weeks
# Source text: (§3) Seeds of mono- and dicotyledonous weeds and crop plants were laid out in plastic or organic plant pots and covered with soil. The compounds of the invention formulated in the form of wettable powders (WP) or emulsion concentrates (EC) were then applied to the surface of the covering soil as an aqueous suspension or emulsion with addition of 0.5% additive at a water application rate equivalent to 600 L/ha. After the treatment, the pots were placed in a greenhouse and kept under good growth conditions for the test plants. After about 3 weeks, the efficacy of the preparations was scored visually as a percentage by comparison with untreated controls. For example, 100% efficacy=plants have died, 0% efficacy=like control plants. Tables B1 to B16 below show the efficacies of selected compounds of the general formula (I) according to tables I.1 to I.60 on various harmful plants and an application rate corresponding to 320 g/ha or lower that were obtained by the aforementioned trial method.
# Alopecurus myosuroides [14] = experiment: as above; conditions: application rate 320 g/ha, scored after about 3 weeks
# Source text: as §3
# Amaranthus retroflexus [15] = experiment: as above; conditions: application rate 320 g/ha, scored after about 3 weeks
# Source text: as §3
# Avena fatua = experiment: as above; conditions: application rate 320 g/ha
# Source text: as §3
# Digitaria sanguinalis [16] = experiment: as above; conditions: application rate 80 g/ha
# Source text: as §3
# Echinochloa crus-galli [17] = experiment: as above; conditions: application rate 320 g/ha, scored after about 3 weeks
# Source text: as §3
# Lolium rigidum [18] = experiment: as above; conditions: application rate 320 g/ha
# Source text: as §3
# Matricaria inodora [19] = experiment: as above; conditions: application rate 320 g/ha, scored after about 3 weeks
# Source text: as §3
# Pharbitis purpurea [20] = experiment: as above; conditions: application rate 320 g/ha
# Source text: as §3
# Setaria viridis [21] = experiment: as above; conditions: application rate 320 g/ha, scored after about 3 weeks
# Source text: as §3
# Stellaria media [22] = experiment: as above; conditions: application rate 320 g/ha, scored after about 3 weeks
# Source text: as §3
# Veronica persica [23] = experiment: as above; conditions: application rate 320 g/ha
# Source text: as §3
# Viola tricolor [24] = experiment: as above; conditions: application rate 320 g/ha, scored after about 3 weeks
# Source text: as §3
# Zea mays = experiment: Crop compatibility pre-emergence (greenhouse pot trial); conditions: effect vs untreated controls
# Source text: as §3, with “plants.” for “plants. Tables B1 to B16 below show the efficacies of selected compounds of the general formula (I) according to tables I.1 to I.60 on various harmful plants and an application rate corresponding to 320 g/ha or lower that were obtained by the aforementioned trial method.”
# (§4) Crop compatibilities were also scored correspondingly.
# (§5) The effects observed are reported here on selected crop plants by comparison with the untreated controls (values in %).
# Hordeum murinum [25] = experiment: Herbicidal action post-emergence (greenhouse pot trial); conditions: application rate 80 g/ha, scored visually after about 3 weeks vs untreated controls
# Procedure, shortened: as §1
# Oryza sativa = experiment: Crop compatibility post-emergence (greenhouse pot trial); conditions: application rate 5 g/ha
# Procedure, shortened: as §2
# Hordeum murinum [26] = experiment: Herbicidal action pre-emergence (greenhouse pot trial); conditions: application rate 320 g/ha
# Source text: as §3
# Glycine max = experiment: Crop compatibility pre-emergence (greenhouse pot trial); conditions: application rate 20 g/ha, effect vs untreated controls
# Source text: as §3, with “plants.” for “plants. Tables B1 to B16 below show the efficacies of selected compounds of the general formula (I) according to tables I.1 to I.60 on various harmful plants and an application rate corresponding to 320 g/ha or lower that were obtained by the aforementioned trial method.”
# as §4, §5
Triticum aestivum (Efficacy in %) (Triticum aestivum) [%],Structure (SMILES),Abutilon theophrasti (Efficacy in %) (Abutilon theophrasti [1]) [%],Alopecurus myosuroides (Efficacy in %) (Alopecurus myosuroides [2]) [%],Amaranthus retroflexus (Efficacy in %) (Amaranthus retroflexus [3]) [%],Digitaria sanguinalis (Efficacy in %) (Digitaria sanguinalis [4]) [%],Echinochloa crus-galli (Efficacy in %) (Echinochloa crus-galli [5]) [%],Lolium rigidum (Efficacy in %) (Lolium rigidum [6]) [%],Matricaria inodora (Efficacy in %) (Matricaria inodora [7]) [%],Pharbitis purpurea (Efficacy in %) (Pharbitis purpurea [8]) [%],Polygonum convolvulus (Efficacy in %) (Polygonum convolvulus) [%],Setaria viridis (Efficacy in %) (Setaria viridis [9]) [%],Stellaria media (Efficacy in %) (Stellaria media [10]) [%],Veronica persica (Efficacy in %) (Veronica persica [11]) [%],Viola tricolor (Efficacy in %) (Viola tricolor [12]) [%],Abutilon theophrasti (Efficacy in %) (Abutilon theophrasti [13]) [%],Amaranthus retroflexus (Efficacy in %) (Amaranthus retroflexus [15]) [%],Avena fatua (Efficacy in %) (Avena fatua) [%],Digitaria sanguinalis (Efficacy in %) (Digitaria sanguinalis [16]) [%],Echinochloa crus-galli (Efficacy in %) (Echinochloa crus-galli [17]) [%],Lolium rigidum (Efficacy in %) (Lolium rigidum [18]) [%],further results
20,CCOCCOC(=O)C(C)Sc1cc(-n2c(=O)cc(C(F)(F)F)n(C)c2=O)c(F)cc1Cl (centres unmarked) [I.1-2],100,90,100,100,100,100,100,100,100,100,100,100,100,100,100,90,100,100,90,Alopecurus myosuroides (Efficacy in %) (Alopecurus myosuroides [14]): 80%; Matricaria inodora (Efficacy in %) (Matricaria inodora [19]): 100%; Pharbitis purpurea (Efficacy in %) (Pharbitis purpurea [20]): 100%; Setaria viridis (Efficacy in %) (Setaria viridis [21]): 100%; Stellaria media (Efficacy in %) (Stellaria media [22]): 100%; Veronica persica (Efficacy in %) (Veronica persica [23]): 100%; Viola tricolor (Efficacy in %) (Viola tricolor [24]): 100%; Zea mays (Efficacy in %) (Zea mays; application rate 20 g/ha): 0%
20,COCCCOC(=O)C(C)Sc1cc(-n2c(=O)cc(C(F)(F)F)n(C)c2=O)c(F)cc1Cl (centres unmarked) [I.1-26],100,80,100,100,100,90,100,100,100,100,100,100,100,100,100,80,100,100,90,Hordeum murinum (Efficacy in %) (Hordeum murinum [25]): 90%; Oryza sativa (Efficacy in %) (Oryza sativa): 10%; Hordeum murinum (Efficacy in %) (Hordeum murinum [26]): 100%; Matricaria inodora (Efficacy in %) (Matricaria inodora [19]): 100%; Pharbitis purpurea (Efficacy in %) (Pharbitis purpurea [20]): 100%; Setaria viridis (Efficacy in %) (Setaria viridis [21]): 100%; Stellaria media (Efficacy in %) (Stellaria media [22]): 100%; Veronica persica (Efficacy in %) (Veronica persica [23]): 100%; Viola tricolor (Efficacy in %) (Viola tricolor [24]): 100%; Glycine max (Efficacy in %) (Glycine max): 0%; Zea mays (Efficacy in %) (Zea mays; application rate 80 g/ha): 10%
